Measurements: patent publication US20080057529A1, “Method for Identifying Histone Deacetylase Inhibitors” (priority 2003, published 2008)

Tests used:
Type in all cases: cell-based, human
p21 minimal promoter [1] = test: Fluorometric β-lactamase activity assay in stable HeLa clone 1.17 (p21m-BLA)
Procedure: All clones were screened for the presence of stably and functional integrated copies of the p21m-BLA reporter gene transcription cassette by performing a fluorometric β-lactamase activity assay after treatment with the HDAC inhibitor Apicidin at a concentration of 1 μM (saturating dose representing 100% of Bla gene activation, i.e., 100% of HDAC inhibition). A 100 μL aliquot of cells for each stable transformant in complete DMEM was plated into a well of a 96 well plate at about 36,000 cells per well for treatment with 1 μM Apicidin (saturating dose) and a 100 μL aliquot of cells was plated into a well of a 96 well plate at 24,000 cells per well for treatment with DMSO (vehicle control). […] After 4 hours, 25 μL of complete DMEM containing Apicidin at 5× final concentration or DMSO (5%) was added to each of the wells. The cells were then grown at 37° C., 5% CO2 for about 12 to 16 hours. Afterwards, the medium was removed and 100 μL of DMEM without serum and 25 μL of FRET labeled CCF2-AM Bla substrate diluted in the appropriate buffer according to the manufacturer recommendations were each added to the cells to give a final concentration of 1 μM CCF2-AM.

p21 minimal promoter [2] = test: Transient transfection of HeLa cells with p21m-SEAP reporter plasmid, SEAP activity; conditions: Apicidin 1 μM; for Fold Induct. (SEAP norm) / Fold induct. (SEAP) / SEAP (fold ind) / SEAP norm.-bckg/RLU norm (fold ind): vs DMSO
Procedure: To determine whether the p21 minimal promoter was responsive to HDAC inhibitors, a reporter plasmid containing the secreted alkaline phosphatase gene (SEAP) operably linked to the p21 minimal promoter (−182 through +25), pcDNA3-21m-SEAP, was tested in transient transfection experiments of HeLa cells. […] All data summarized in Tables 4 through 7 were obtained by normalizing the total amount of transfected DNA to 2.1 μg using a promoterless plasmid.

[3] = test system: HDAC activity (acetylated histone H3); test: Acetylation of core histones (inhibition of HDAC activity) in HeLa cells, acetylated histone H3 immunoblot; conditions: Homo sapiens, HeLa, 13 h, read-out: AcH3 EC50
Procedure: Induction of endogenous p21 and acetylation of core histones (inhibition of HDAC activity) was as follows. Dose-response experiments were performed in HeLa cells with different classes of known HDAC inhibitors. […] An α-tubulin-specific antibody (Sigma, St. Louis, Mo.; catalog number: T9026) was used as an internal standard. Quantitative data were obtained by densitometric analysis of X-ray films and were normalized for the internal standard values.

CMV promoter = test: Luc activity of co-transfected pCMV-Luc control plasmid in HeLa cells; conditions: TSA 300 nM, Apicidin 1 μM; for RLU/mg / Fold Ind. RLU: Table 3; for Fold Ind. RLU: vs DMSO; for RLU norm mean / RLU/μg: Table 5; for RLU/μg: luciferase control plasmid not named
HeLa cells = test: Cell death in transiently transfected HeLa cells; conditions: after 6 hours; TSA 300 nM, Apicidin 1 μM; transfected HeLa cells
Procedure: (§1) The p21m-BLA reporter plasmid was tested in transient transfection experiments of HeLa cells to evaluate the responsiveness of the minimal p21 promoter and the Bla reporter system to known HDAC inhibitors. In the first two transfection experiments, HeLa cells were transfected with 1 or 2 μg of Bla reporter plasmid containing either p21 minimal promoter (p21m-BLA) or CMV promoter (CMV-BLA) and 0.1 μg of pCMV-Luc or pRSV-Luc control plasmids. Different DNA-FUGENE transfection reagent ratios were tested (FUGENE is available from Roche Applied Science, Indianapolis, Ind.). […] Data are summarized below in Tables 1 and 2.
(§2) The percentage of β-lactamase-positive cells increased with time independent of the presence of HDAC inhibitors and was constantly higher with p21m-BLA than with pCMV-BLA.

p21 minimal promoter [4] = test: Transient transfection of HeLa cells with p21m-BLA reporter plasmid, Bla staining (blue cells); conditions: Apicidin 1 μM; for % Blue cells: Table 3, 2 μg p21m-BLA + 0.1 μg pCMV-Luc, TSA 300 nM; for Bla staining at 60 min. / fold-ind. at 60 min. (Bla): Table 6; for fold-ind. at 60 min. (Bla) / fold-ind. at 15 min. (Bla): vs DMSO; for Bla staining at 15 min / fold-ind. at 15 min. (Bla): Table 7 (repeat)
Procedure: as §1, §2
In light of the above, the lack of apparent Bla activation in the above transfection experiments might have been due to the high sensitivity of the method. Therefore, transient transfections in which an accurate titration of the reporter plasmid DNA were performed. The titration of the reporter plasmid included using amounts lower than was used above. […] The transient transfections were repeated and the result confirmed (Table 7).

[5] = Table 5, TSA 300 nM, P21m-SEAP 0.1 μg DNA
[6] = Table 5, TSA 300 nM, P21m-SEAP 0.2 μg DNA
[7] = Table 5, TSA 300 nM, P21m-SEAP 0.5 μg DNA
[8] = Table 5, TSA 300 nM, P21m-SEAP 1 μg DNA
[9] = Table 5, TSA 300 nM, P21m-SEAP 2 μg DNA

## CCC(=O)CCCCC[C@@H]1NC(=O)[C@H]2CCCCN2C(=O)[C@H]([C@@H](C)CC)NC(=O)[C@H](Cc2cn(OC)c3ccccc23)NC1=O [Apicidin]
p21 minimal promoter [1]; Homo sapiens, HeLa, 13 h, read-out: p21m-Bla EC50
  EC50: 170 nM
p21 minimal promoter [1]; clone 1.17, saturating amounts of Apicidin (1 μM)
  induction over DMSO (slope analysis of β-lactamase activity): ~200 fold
p21 minimal promoter [2]; TSA 300 nM, p21m-SEAP promoter titration in HeLa
  induction of SEAP (maximum): up to 20 fold
p21 minimal promoter [2]; Table 4, P21m-SEAP 0 μg DNA (total DNA 2.1 μg)
  SEAP (10 min): 11366
p21 minimal promoter [2]; Table 4, P21m-SEAP 0 μg DNA
  SEAP activity normalised to total protein: 5683
  Fold Induct. (SEAP norm): 4.901 fold
  Fold induct. (SEAP): 3.5 fold
p21 minimal promoter [2]; Table 4, P21m-SEAP 0.1 μg DNA (total DNA 2.1 μg)
  SEAP (10 min): 41278
p21 minimal promoter [2]; Table 4, P21m-SEAP 0.1 μg DNA
  SEAP activity normalised to total protein: 27518.67
  Fold Induct. (SEAP norm): 7.691 fold
  Fold induct. (SEAP): 4.8 fold
p21 minimal promoter [2]; Table 4, P21m-SEAP 0.2 μg DNA (total DNA 2.1 μg)
  SEAP (10 min): 33449
p21 minimal promoter [2]; Table 4, P21m-SEAP 0.2 μg DNA
  SEAP activity normalised to total protein: 16724.5
  Fold Induct. (SEAP norm): 14.9372 fold
  Fold induct. (SEAP): 10.3 fold
p21 minimal promoter [2]; Table 4, P21m-SEAP 0.5 μg DNA (total DNA 2.1 μg)
  SEAP (10 min): 81729
p21 minimal promoter [2]; Table 4, P21m-SEAP 0.5 μg DNA
  SEAP activity normalised to total protein: 54486
  Fold Induct. (SEAP norm): 19.2643 fold
  Fold induct. (SEAP): 9.6 fold
p21 minimal promoter [2]; Table 4, P21m-SEAP 1 μg DNA (total DNA 2.1 μg)
  SEAP (10 min): 85405
p21 minimal promoter [2]; Table 4, P21m-SEAP 1 μg DNA
  SEAP activity normalised to total protein: 61003.57
  Fold Induct. (SEAP norm): 17.5478 fold
  Fold induct. (SEAP): 8.8 fold
p21 minimal promoter [2]; Table 4, P21m-SEAP 2 μg DNA (total DNA 2.1 μg)
  SEAP (10 min): 795345
p21 minimal promoter [2]; Table 4, P21m-SEAP 2 μg DNA
  SEAP activity normalised to total protein: 441858.3
  Fold Induct. (SEAP norm): 15.3076 fold
  Fold induct. (SEAP): 9.8 fold
p21 minimal promoter [2]; Table 5, TSA 300 nM, P21m-SEAP 0 μg DNA (total DNA 2.1 μg)
  SEAP (10 min): 2133
p21 minimal promoter [2]; Table 5, TSA 300 nM, P21m-SEAP 0 μg DNA
  SEAP (fold ind): 1.8 fold
p21 minimal promoter [2]; [5]
  SEAP norm-bckg/RLU norm: 4,740.65
  SEAP (fold ind): 3.3 fold
  SEAP norm.-bckg/RLU norm (fold ind): 10.7 fold
p21 minimal promoter [2]; Table 5, TSA 300 nM, P21m-SEAP 0.1 μg DNA (total DNA 2.1 μg)
  SEAP (10 min): 5661
p21 minimal promoter [2]; [6]
  SEAP norm-bckg/RLU norm: 10,064.04
  SEAP (fold ind): 3.75 fold
  SEAP norm.-bckg/RLU norm (fold ind): 16.4 fold
p21 minimal promoter [2]; Table 5, TSA 300 nM, P21m-SEAP 0.2 μg DNA (total DNA 2.1 μg)
  SEAP (10 min): 10279
p21 minimal promoter [2]; [7]
  SEAP norm-bckg/RLU norm: 24,280.99
  SEAP (fold ind): 6.25 fold
  SEAP norm.-bckg/RLU norm (fold ind): 17.9 fold
p21 minimal promoter [2]; Table 5, TSA 300 nM, P21m-SEAP 0.5 μg DNA (total DNA 2.1 μg)
  SEAP (10 min): 16014
p21 minimal promoter [2]; [8]
  SEAP norm-bckg/RLU norm: 68,122.56
  SEAP (fold ind): 6.8 fold
  SEAP norm.-bckg/RLU norm (fold ind): 16.9 fold
p21 minimal promoter [2]; Table 5, TSA 300 nM, P21m-SEAP 1 μg DNA (total DNA 2.1 μg)
  SEAP (10 min): 48928
p21 minimal promoter [2]; [9]
  SEAP norm-bckg/RLU norm: 219,589.86
  SEAP (fold ind): 4.5 fold
  SEAP norm.-bckg/RLU norm (fold ind): 17.3 fold
p21 minimal promoter [2]; Table 5, TSA 300 nM, P21m-SEAP 2 μg DNA (total DNA 2.1 μg)
  SEAP (10 min): 108562
[3]
  EC50: 110 nM
CMV promoter; 2 μg p21m-BLA + 0.1 μg pCMV-Luc, 6 hr treatment
  RLU/mg: 79723 RLU/mg
CMV promoter; 2 μg p21m-BLA + 0.1 μg pCMV-Luc, 6 hr
  Fold Ind. RLU: 3.6 fold
CMV promoter; 2 μg p21m-BLA + 0.1 μg pCMV-Luc, 12 hr treatment
  RLU/mg: 183519 RLU/mg
CMV promoter; 2 μg p21m-BLA + 0.1 μg pCMV-Luc, 12 hr
  Fold Ind. RLU: 2.45 fold
CMV promoter; 2 μg p21m-BLA + 0.1 μg pCMV-Luc, 24 hr treatment
  RLU/mg: 131733 RLU/mg
CMV promoter; 2 μg p21m-BLA + 0.1 μg pCMV-Luc, 24 hr
  Fold Ind. RLU: 2.9 fold
CMV promoter; 2 μg pCMV-BLA + 0.1 μg pCMV-Luc, 6 hr treatment
  RLU/mg: 10937 RLU/mg
CMV promoter; 2 μg pCMV-BLA + 0.1 μg pCMV-Luc, 6 hr
  Fold Ind. RLU: 2 fold
CMV promoter; 2 μg pCMV-BLA + 0.1 μg pCMV-Luc, 12 hr treatment
  RLU/mg: 39603.5 RLU/mg
CMV promoter; 2 μg pCMV-BLA + 0.1 μg pCMV-Luc, 12 hr
  Fold Ind. RLU: 3.6 fold
CMV promoter; 2 μg pCMV-BLA + 0.1 μg pCMV-Luc, 24 hr treatment
  RLU/mg: 18932.5 RLU/mg
CMV promoter; 2 μg pCMV-BLA + 0.1 μg pCMV-Luc, 24 hr
  Fold Ind. RLU: 5.3 fold
CMV promoter; P21m-SEAP 0 μg DNA
  RLU norm mean: 1.08
  RLU/μg: 102,236.00 RLU/μg
CMV promoter; P21m-SEAP 0.1 μg DNA
  RLU norm mean: 1.17
  RLU/μg: 111,192.67 RLU/μg
CMV promoter; P21m-SEAP 0.2 μg DNA
  RLU norm mean: 1.14
  RLU/μg: 108,052.99 RLU/μg
CMV promoter; P21m-SEAP 0.5 μg DNA
  RLU norm mean: 0.57
  RLU/μg: 54,363.72 RLU/μg
CMV promoter; P21m-SEAP 1 μg DNA
  RLU norm mean: 1.14
  RLU/μg: 108,153.75 RLU/μg
CMV promoter; P21m-SEAP 2 μg DNA
  RLU norm mean: 0.90
  RLU/μg: 85,172.59 RLU/μg
HeLa cells
  Cell-death: not visible
p21 minimal promoter [4]; only with the lowest DNA amounts
  induction of β-lactamase activity: 3- to 5 fold
p21 minimal promoter [4]; 6 hr treatment
  % Blue cells: 6%
p21 minimal promoter [4]; 12 hr treatment
  % Blue cells: 10%
p21 minimal promoter [4]; 24 hr treatment
  % Blue cells: 25%
p21 minimal promoter [4]; p21m-BLA 0 μg DNA
  Bla staining at 60 min.: 0%
  Bla staining at 15 min: 0%
p21 minimal promoter [4]; p21m-BLA 0.02 μg DNA
  Bla staining at 60 min.: 2-3%
  fold-ind. at 60 min. (Bla): 3-4 fold
  Bla staining at 15 min: 6-10%
  fold-ind. at 15 min. (Bla): 2-3 fold
p21 minimal promoter [4]; p21m-BLA 0.05 μg DNA
  Bla staining at 60 min.: 10-15%
  fold-ind. at 60 min. (Bla): 5 fold
  Bla staining at 15 min: 20-25%
  fold-ind. at 15 min. (Bla): 4-5 fold
p21 minimal promoter [4]; p21m-BLA 0.1 μg DNA
  Bla staining at 60 min.: 25-30%
  fold-ind. at 60 min. (Bla): 2 fold
  Bla staining at 15 min: 25-30%
  fold-ind. at 15 min. (Bla): 2 fold
p21 minimal promoter [4]; p21m-BLA 0.2 μg DNA
  Bla staining at 60 min.: 35-40%
  fold-ind. at 60 min. (Bla): 2 fold
  Bla staining at 15 min: 40%
  fold-ind. at 15 min. (Bla): 1.3 fold
p21 minimal promoter [4]; p21m-BLA 0.5 μg DNA
  Bla staining at 60 min.: 50%
  fold-ind. at 60 min. (Bla): 1.25 fold
  Bla staining at 15 min: 40%
  fold-ind. at 15 min. (Bla): 1 fold
